Measured values from patent publication EP2111858A1, “Novel treatment for alzheimer's disease” (EPFL Ecole Polytechnique Fédérale de Lausanne, priority 2008, dated 2009).

System: α- and β-secretase cleavage of APP
Test: Western blot of intracellular APP-C99 and APP-C83 in rat primary neurons exposed to NMDAR modulators
Format: cell-based
Conditions: 15 DIV, compared to the untreated control, NMDA, D-serine 30µM for 3 minutes, memantine 30µM for 16 hours, DAPT 1 µM for 16 hours
Protocol: Neuronal cultures and treatments. Cortical and hippocampal neurons were cultured as described^27 from postnatal day 0 rats or mice and all treatments described bellow carried out at 15 days in vitro (DIV). Stimulations with 30µM N-methyl-D-aspartate (NMDA, Tocris), 30µM D-serine (the D isoform of the amino acid serine, Sigma), or a combination of NMDA + D-serine (30µM each) were carried out for 3 minutes and neurons transferred into trophically enriched medium and further incubated for 16 hours. Treatments with 30µM 1-amino-3,5-dimethyladamantane (memantine, Lucerna-Chem), 1 µM N-[N-(3,5-difluorophenacetyl)-L-alanyl]-S-phenylgly cine t-butyl ester (DAPT, ), and 1 µM phorbol 12-myristate 13-acetate (PMA, Sigma) were carried out for 16 hours. Pre-treatments with 1 µM TAPI-1 (Calbiochem), 1 µM GL189 (Calbiochem), 1,2-bis(o-aminophenoxy)ethane-N,N,N',N'-tetraacetic acid (BAPTA, Sigma), H-89, chelerythrine, or KN-62 (Biaffin GmbH & Co KG) were carried out for 1 hour. Next, neurons were treated (or not) with NMDA or NMDA + D-serine as described above, and cells transferred into trophically enriched medium and incubated for additional 15 hours. Whole cell lysates were prepared for Western blot analysis as described below.
Western blotting and antibodies. Cells were washed with cold phosphate-bufferd saline containing 2 mM EDTA and homogenized in 50 mM Tris-HCL pH 7.4, 350 mM NaCl, 100 mM DTT, 0.1% SDS, 0.5% NP-40 and a cocktail of protease inhibitors (Roche Diagnostics). Protein whole cell extracts were separated on 4-12% Bis-tris gels (Invitrogen) and transferred onto nitrocellulose membranes to detect APP-FL, APP-C99, APP-C83 and AICD (CT15, Sigma), sAPPα (6E10, Signet), Notch-FL and NICD (Sigma), ADAM10 (Calbiochem), ADAM17 (Calbiochem), BACE1 (EE17, Sigma), NCT (NCT164, BD Bioscience), PS1-FL and PS1-NTF (MAB1536, Chemicon International), Pen-2 (UD-1, 1:500, a gift of Helena Karlström), and β-Action (Sigma).

SMILES	intracellular accumulation of APP-C99 and APP-C83
N[C@H](CO)C(=O)O [D-serine]	did not affect the production of APP-C99/APP-C83
CC12CC3CC(C)(C1)CC(N)(C3)C2 [memantine, 1-amino-3,5-dimethyladamantane]	triggered the accumulation of APP-C83
C[C@H](NC(=O)Cc1cc(F)cc(F)c1)C(=O)N[C@H](C(=O)OC(C)(C)C)c1ccccc1 [DAPT, N-[N-(3,5-difluorophenacetyl)-L-alanyl]-S-phenylglycine t-butyl ester]	increased levels of both APP-C83 and APP-C99
